Measurements as given in article PMC9636034 (Current Research in Food Science, 2022).

Target: α-glucosidase from yeast (Saccharomyces cerevisiae, UniProt P53341)
Assay: Inhibition assay against α-glucosidase from yeast
Format: biochemical

Chain of α-glucosidase from yeast (P53341 whole entry): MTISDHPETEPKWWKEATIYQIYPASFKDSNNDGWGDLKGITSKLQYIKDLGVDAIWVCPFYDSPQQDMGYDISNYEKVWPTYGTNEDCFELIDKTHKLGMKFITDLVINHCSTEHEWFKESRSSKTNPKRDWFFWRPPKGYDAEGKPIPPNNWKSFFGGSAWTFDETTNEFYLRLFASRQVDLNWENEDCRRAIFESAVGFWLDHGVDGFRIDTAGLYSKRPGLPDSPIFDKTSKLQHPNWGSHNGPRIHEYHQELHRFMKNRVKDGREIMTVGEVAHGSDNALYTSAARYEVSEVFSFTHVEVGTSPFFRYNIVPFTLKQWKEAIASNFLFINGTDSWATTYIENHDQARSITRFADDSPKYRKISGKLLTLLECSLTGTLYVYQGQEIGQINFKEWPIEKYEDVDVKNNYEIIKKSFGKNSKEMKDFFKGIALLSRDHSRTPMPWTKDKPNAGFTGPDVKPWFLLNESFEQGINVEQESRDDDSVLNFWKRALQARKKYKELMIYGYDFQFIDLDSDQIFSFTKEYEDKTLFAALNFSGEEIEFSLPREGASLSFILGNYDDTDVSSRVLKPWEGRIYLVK

Compound: CC1=C(C)C(C)(O)OC1=O (centres unmarked) [Compound 3, 2-methyl-2-hydroxy-3,4-dimethyl-5-oxo-2,5-dihydrofuran]
- IC50: > 250 µM

Compound: CC(=O)[C@@H]1COC(=O)[C@H]1C [Compound 2, (3S, 4S)-4-acetyl-3-methyldihydrofuran-2 (3H)-one]
- IC50: 193 ± 13.1 µM
